Assay results: patent US20130274174A1, “THERAPEUTIC COMBINATION OF DAPTOMYCIN AND PROTEIN SYNTHESIS INHIBITOR ANTIBIOTIC, AND METHODS OF USE” (priority 2011, published 2013)
Converted amounts (≈) assume the structure as drawn. Like-named read-outs stand apart in the source and are kept apart here.

How the values were obtained:
S. aureus MW2 (NRS123) = assay: microbe, parasite or virus in culture; assay type: cell-based, Staphylococcus aureus; settings: for MIC: Staphylococcus aureus
Experimental: (§1) S. aureus strains MW2 (NARSA collection clinical MRSA isolate, NRS123) and ATCC 33591 (MRSA strain from the American Type Culture Collection) were cultured on Mueller-Hinton II cation adjusted (MHA) medium in 90×90 mm square petri dishes. MHA containing ¼ of the MIC value of TR-700, TR-705, LZD, TIA, CLI, TET, or VAN, TMP/SMX throughout the plate and a continuous linear gradient of DAP across the plate was used to passage MW2. ATCC 33591 was passaged with ¼ of the MIC of a subset of these drugs (TR-700, TMP/SMX, and VAN). A DAP-only control passage group was included for both strains. DAP gradients were created by pouring two layers of media as previously described (Bryson, V., et al. 1952. Microbial selection. Science 116:45-51; Locke, J. B., et al., 2009. Antimicrob. Agents Chemother. 53:5265-5274). Following each passage the leading edge of growth (i.e., most resistant cells) was resuspended in phosphate buffered saline (PBS) to an absorbance of 0.30 OD600 and a 100 μl aliquot containing ˜3.0×10^7 CFU (colony-forming units) was spread on to the proceeding passage plate. The starting maximal DAP concentration was 2 μg/ml and was increased in two-fold increments when the leading edge of growth surpassed the half way point on the plate. A glycerol stock was made from the total cell population for each culture condition for each passage. Thirty serial passages were completed for each treatment group.

S. aureus ATCC 33591 = assay: microbe, parasite or virus in culture; assay type: cell-based, Staphylococcus aureus; settings: Staphylococcus aureus
Experimental: as §1

CN[C@H](CC(C)C)C(=O)N[C@H]1C(=O)N[C@@H](CC(N)=O)C(=O)N[C@H]2C(=O)N[C@H]3C(=O)N[C@H](C(=O)N[C@H](C(=O)O)c4cc(O)cc(O)c4-c4cc3ccc4O)[C@H](O)c3ccc(c(Cl)c3)Oc3cc2cc(c3O[C@@H]2O[C@H](CO)[C@@H](O)[C@H](O)[C@H]2O[C@H]2C[C@](C)(N)[C@H](O)[C@H](C)O2)Oc2ccc(cc2Cl)[C@H]1O [VAN, vancomycin]
MIC (S. aureus MW2 (NRS123); NRS123, passage 0, NRS123 WT): 1 µg/mL (≈ 0.69 µM) | MIC (S. aureus MW2 (NRS123); NRS123, passage 5, selection group DAP): 2 µg/mL (≈ 1.38 µM) | MIC (S. aureus MW2 (NRS123); NRS123, passage 5, selection group DAP + CLI): 4 µg/mL | MIC (S. aureus MW2 (NRS123); NRS123, passage 5, selection group DAP + LZD): 4 µg/mL | MIC (S. aureus MW2 (NRS123); NRS123, passage 5, selection group DAP + TET): 2 µg/mL | MIC (S. aureus MW2 (NRS123); NRS123, passage 5, selection group DAP + TIA): 2 µg/mL | MIC (S. aureus MW2 (NRS123); NRS123, passage 5, selection group DAP + TMP/SMX): 8 µg/mL | MIC (S. aureus MW2 (NRS123); NRS123, passage 5, selection group DAP + TR-700): 2 µg/mL | MIC (S. aureus MW2 (NRS123); NRS123, passage 5, selection group DAP + TR-705): 4 µg/mL | MIC (S. aureus MW2 (NRS123); NRS123, passage 5, selection group DAP + VAN): 4 µg/mL | MIC (S. aureus MW2 (NRS123); NRS123, passage 10, selection group DAP): 4 µg/mL (≈ 2.76 µM) | MIC (S. aureus MW2 (NRS123); NRS123, passage 10, selection group DAP + CLI): 4 µg/mL | MIC (S. aureus MW2 (NRS123); NRS123, passage 10, selection group DAP + LZD): 8 µg/mL | MIC (S. aureus MW2 (NRS123); NRS123, passage 10, selection group DAP + TET): 2 µg/mL | MIC (S. aureus MW2 (NRS123); NRS123, passage 10, selection group DAP + TIA): 4 µg/mL | MIC (S. aureus MW2 (NRS123); NRS123, passage 10, selection group DAP + TMP/SMX): 8 µg/mL | MIC (S. aureus MW2 (NRS123); NRS123, passage 10, selection group DAP + TR-700): 2 µg/mL | MIC (S. aureus MW2 (NRS123); NRS123, passage 10, selection group DAP + TR-705): 2 µg/mL | MIC (S. aureus MW2 (NRS123); NRS123, passage 10, selection group DAP + VAN): 4 µg/mL | MIC (S. aureus MW2 (NRS123); NRS123, passage 15, selection group DAP): 8 µg/mL (≈ 5.52 µM) | MIC (S. aureus MW2 (NRS123); NRS123, passage 15, selection group DAP + CLI): 8 µg/mL | MIC (S. aureus MW2 (NRS123); NRS123, passage 15, selection group DAP + LZD): 8 µg/mL | MIC (S. aureus MW2 (NRS123); NRS123, passage 15, selection group DAP + TET): 0.5 µg/mL | MIC (S. aureus MW2 (NRS123); NRS123, passage 15, selection group DAP + TIA): 4 µg/mL | MIC (S. aureus MW2 (NRS123); NRS123, passage 15, selection group DAP + TMP/SMX): 8 µg/mL | MIC (S. aureus MW2 (NRS123); NRS123, passage 15, selection group DAP + TR-700): 2 µg/mL | MIC (S. aureus MW2 (NRS123); NRS123, passage 15, selection group DAP + TR-705): 2 µg/mL | MIC (S. aureus MW2 (NRS123); NRS123, passage 15, selection group DAP + VAN): 8 µg/mL | MIC (S. aureus MW2 (NRS123); NRS123, passage 20, selection group DAP): 8 µg/mL (≈ 5.52 µM) | MIC (S. aureus MW2 (NRS123); NRS123, passage 20, selection group DAP + CLI): 8 µg/mL | MIC (S. aureus MW2 (NRS123); NRS123, passage 20, selection group DAP + LZD): 8 µg/mL | MIC (S. aureus MW2 (NRS123); NRS123, passage 20, selection group DAP + TET): 1 µg/mL | MIC (S. aureus MW2 (NRS123); NRS123, passage 20, selection group DAP + TIA): 4 µg/mL | MIC (S. aureus MW2 (NRS123); NRS123, passage 20, selection group DAP + TMP/SMX): 8 µg/mL | MIC (S. aureus MW2 (NRS123); NRS123, passage 20, selection group DAP + TR-700): 2 µg/mL | MIC (S. aureus MW2 (NRS123); NRS123, passage 20, selection group DAP + TR-705): 2 µg/mL | MIC (S. aureus MW2 (NRS123); NRS123, passage 20, selection group DAP + VAN): 8 µg/mL | MIC (S. aureus MW2 (NRS123); NRS123, passage 25, selection group DAP): 4 µg/mL (≈ 2.76 µM) | MIC (S. aureus MW2 (NRS123); NRS123, passage 25, selection group DAP + CLI): 8 µg/mL | MIC (S. aureus MW2 (NRS123); NRS123, passage 25, selection group DAP + LZD): 8 µg/mL | MIC (S. aureus MW2 (NRS123); NRS123, passage 25, selection group DAP + TET): 1 µg/mL | MIC (S. aureus MW2 (NRS123); NRS123, passage 25, selection group DAP + TIA): 2 µg/mL | MIC (S. aureus MW2 (NRS123); NRS123, passage 25, selection group DAP + TMP/SMX): 8 µg/mL | MIC (S. aureus MW2 (NRS123); NRS123, passage 25, selection group DAP + TR-700): 2 µg/mL | MIC (S. aureus MW2 (NRS123); NRS123, passage 25, selection group DAP + TR-705): 2 µg/mL | MIC (S. aureus MW2 (NRS123); NRS123, passage 25, selection group DAP + VAN): 8 µg/mL | MIC (S. aureus MW2 (NRS123); NRS123, passage 30, selection group DAP): 2 µg/mL (≈ 1.38 µM) | MIC (S. aureus MW2 (NRS123); NRS123, passage 30, selection group DAP + CLI): 8 µg/mL | MIC (S. aureus MW2 (NRS123); NRS123, passage 30, selection group DAP + LZD): 2 µg/mL | MIC (S. aureus MW2 (NRS123); NRS123, passage 30, selection group DAP + TET): 1 µg/mL | MIC (S. aureus MW2 (NRS123); NRS123, passage 30, selection group DAP + TIA): 4 µg/mL | MIC (S. aureus MW2 (NRS123); NRS123, passage 30, selection group DAP + TMP/SMX): 8 µg/mL | MIC (S. aureus MW2 (NRS123); NRS123, passage 30, selection group DAP + TR-700): 2 µg/mL | MIC (S. aureus MW2 (NRS123); NRS123, passage 30, selection group DAP + TR-705): 2 µg/mL | MIC (S. aureus MW2 (NRS123); NRS123, passage 30, selection group DAP + VAN): 4 µg/mL | MIC (S. aureus MW2 (NRS123); NRS123, read-out: DAP MIC by the end of the experiment (selection of DAP^ns strains), MW2, passaged with DAP alone or with co-selecting agent at ¼ MIC, CLSI breakpoint): > 1 µg/mL | effect on preventing the emergence of DAP^ns (S. aureus MW2 (NRS123); co-selection at ¼ MIC, VAN: both backgrounds): had an effect on preventing the emergence of DAP^ns strains | DAP/VAN cross-resistance (S. aureus MW2 (NRS123); co-selection with VAN, both backgrounds): cross-resistance was observed | MIC (S. aureus ATCC 33591; ATCC33591, passage 0, ATCC 33591 WT): 2 µg/mL (≈ 1.38 µM) | MIC (S. aureus ATCC 33591; ATCC33591, passage 5, selection group DAP): 4 µg/mL (≈ 2.76 µM) | MIC (S. aureus ATCC 33591; ATCC33591, passage 5, selection group DAP + TMP/SMX): 4 µg/mL | MIC (S. aureus ATCC 33591; ATCC33591, passage 5, selection group DAP + TR-700): 2 µg/mL | MIC (S. aureus ATCC 33591; ATCC33591, passage 5, selection group DAP + VAN): 4 µg/mL | MIC (S. aureus ATCC 33591; ATCC33591, passage 10, selection group DAP): 4 µg/mL (≈ 2.76 µM) | MIC (S. aureus ATCC 33591; ATCC33591, passage 10, selection group DAP + TMP/SMX): 8 µg/mL | MIC (S. aureus ATCC 33591; ATCC33591, passage 10, selection group DAP + TR-700): 4 µg/mL | MIC (S. aureus ATCC 33591; ATCC33591, passage 10, selection group DAP + VAN): 4 µg/mL | MIC (S. aureus ATCC 33591; ATCC33591, passage 15, selection group DAP): 4 µg/mL (≈ 2.76 µM) | MIC (S. aureus ATCC 33591; ATCC33591, passage 15, selection group DAP + TMP/SMX): 4 µg/mL | MIC (S. aureus ATCC 33591; ATCC33591, passage 15, selection group DAP + TR-700): 4 µg/mL | MIC (S. aureus ATCC 33591; ATCC33591, passage 15, selection group DAP + VAN): 4 µg/mL | MIC (S. aureus ATCC 33591; ATCC33591, passage 20, selection group DAP): 4 µg/mL (≈ 2.76 µM) | MIC (S. aureus ATCC 33591; ATCC33591, passage 20, selection group DAP + TMP/SMX): 4 µg/mL | MIC (S. aureus ATCC 33591; ATCC33591, passage 20, selection group DAP + TR-700): 4 µg/mL | MIC (S. aureus ATCC 33591; ATCC33591, passage 20, selection group DAP + VAN): 8 µg/mL | MIC (S. aureus ATCC 33591; ATCC33591, passage 25, selection group DAP): 4 µg/mL (≈ 2.76 µM) | MIC (S. aureus ATCC 33591; ATCC33591, passage 25, selection group DAP + TMP/SMX): 4 µg/mL | MIC (S. aureus ATCC 33591; ATCC33591, passage 25, selection group DAP + TR-700): 4 µg/mL | MIC (S. aureus ATCC 33591; ATCC33591, passage 25, selection group DAP + VAN): 8 µg/mL | MIC (S. aureus ATCC 33591; ATCC33591, passage 30, selection group DAP): 4 µg/mL (≈ 2.76 µM) | MIC (S. aureus ATCC 33591; ATCC33591, passage 30, selection group DAP + TMP/SMX): 4 µg/mL | MIC (S. aureus ATCC 33591; ATCC33591, passage 30, selection group DAP + TR-700): 2 µg/mL | MIC (S. aureus ATCC 33591; ATCC33591, passage 30, selection group DAP + VAN): 4 µg/mL
